Each structure is given as a SMILES string.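 Tested at 5 concentrations; 48 h exposure; 96-well plates; endpoints linearly interpolated, else capped at highest concentration. GI50 marks 50% less growth. TGI is the concentration that stops growth completely.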 Where only a bound is given, the exact number is not on record here.

Some test systems named below: HCC-2998 colon; OVCAR-3 ovarian; SNB-75 CNS; PC-3 prostate; SF-539 CNS; HCT-15 colon; SNB-19 CNS; HOP-62 NSCLC; SK-MEL-28 melanoma; CAKI-1 renal.
What all share (test): growth of human tumour cells (NCI), 48 h

For `COc1cc2c3cc1Oc1c(OC)c(OC)cc4c1C(=NCC4)Cc1ccc(cc1)Oc1cc(ccc1O)C[C@H]3N(C)CC2`, the TGI was determined as 26.1 µM with HCC-2998 colon; 39.4 µM in the test with OVCAR-3 ovarian; 40.2 µM in the test with SNB-75 CNS; 42.5 µM in the test with PC-3 prostate; 27.9 µM with SF-539 CNS; 25.9 µM in the test with HCT-15 colon. The TGI with SNB-19 CNS turned out to be 61.6 µM; in the test with HOP-62 NSCLC, 44.7 µM; in the test on SK-MEL-28 melanoma it was 30.3 µM; in the test on CAKI-1 renal it was 49.1 µM.
For `O=C(/C=C/c1ccc(Cl)cc1)c1ccccc(=O)c1O`, the TGI in the test with HCC-2998 colon came to 8.29 µM; in the test on OVCAR-3 ovarian it was 19.8 µM; in the test with SNB-75 CNS it was 12.3 µM; with PC-3 prostate it was 20 µM; in the test with SF-539 CNS, 17.5 µM; in the test on HCT-15 colon, 6.08 µM. Moreover, the TGI with SNB-19 CNS worked out at 11.8 µM; in the test on HOP-62 NSCLC, 21.1 µM; in the test with SK-MEL-28 melanoma, 26.4 µM; in the test on CAKI-1 renal, 2.79 µM.
In the case of `CC(=O)/C(=C/c1ccccc1)C(=O)CC(C)C`, the GI50 in the test on HCC-2998 colon was 9.49 µM; in the test on OVCAR-3 ovarian, 4.69 µM; in the test with SNB-75 CNS, 21.2 µM; with PC-3 prostate, 25.6 µM; with SF-539 CNS, 23.4 µM; in the test on HCT-15 colon it was 4.69 µM. In addition, the GI50 is 12.7 µM in the test on SNB-19 CNS, 26.8 µM in the test on HOP-62 NSCLC, 11.5 µM with SK-MEL-28 melanoma and 7.56 µM in the test on CAKI-1 renal. Besides, the TGI is 21.7 µM in the test on HCC-2998 colon; 15.9 µM in the test on OVCAR-3 ovarian; 42.4 µM with SNB-75 CNS; 93.6 µM with PC-3 prostate; 49.4 µM with SF-539 CNS; 22.3 µM in the test on HCT-15 colon. In addition, the TGI in the test with SNB-19 CNS was 26.2 µM; with HOP-62 NSCLC, 71.8 µM; with SK-MEL-28 melanoma, 24.9 µM; in the test on CAKI-1 renal, 20.6 µM.
In the case of `CCCCOC(=O)c1ccc(N)cc1`, the GI50 in the test on HCC-2998 colon was 22.7 µM; in the test with OVCAR-3 ovarian it was 68 µM; in the test on SNB-75 CNS, 41 µM; in the test with PC-3 prostate it was 9.9 µM; in the test with SF-539 CNS, 30 µM; with HCT-15 colon, 8 µM. Moreover, the GI50 was 75.2 µM in the test with SNB-19 CNS, above 100 µM with HOP-62 NSCLC, above 100 µM in the test on SK-MEL-28 melanoma and 11.4 µM in the test with CAKI-1 renal. The TGI with HCC-2998 colon was 66.2 µM; with OVCAR-3 ovarian it was above 100 µM; in the test on SNB-75 CNS, above 100 µM; in the test on PC-3 prostate, above 100 µM; in the test with SF-539 CNS, above 100 µM; with HCT-15 colon it was above 100 µM. In addition, the TGI in the test with SNB-19 CNS, with HOP-62 NSCLC, with SK-MEL-28 melanoma and with CAKI-1 renal was above 100 µM in each case.
`O=C(O)[C@H](Cc1c[nH]c2ccccc12)N1C(=O)c2ccccc2C1=O`: the TGI in the test on HCC-2998 colon, in the test with OVCAR-3 ovarian, in the test with SNB-75 CNS, with PC-3 prostate, in the test on SF-539 CNS and in the test on HCT-15 colon was above 100 µM throughout. Besides, the TGI in the test with SNB-19 CNS, with HOP-62 NSCLC, with SK-MEL-28 melanoma and in the test on CAKI-1 renal was above 100 µM in each case.
Consider `COc1cccc(/C=C/C(=O)c2ccc(SC)cc2)c1OC`, for which the GI50 is 16.8 µM with HCC-2998 colon; 16.4 µM in the test on OVCAR-3 ovarian; 14.6 µM with SNB-75 CNS; 17 µM in the test with PC-3 prostate; 20 µM with SF-539 CNS; 10.4 µM in the test with HCT-15 colon. In addition, the GI50 with SNB-19 CNS is 16.2 µM; with HOP-62 NSCLC, 19.3 µM; with SK-MEL-28 melanoma, 20 µM; in the test on CAKI-1 renal it was 18.4 µM. For the same molecule, the TGI in the test with HCC-2998 colon came out at 30.4 µM; with OVCAR-3 ovarian, 32 µM; with SNB-75 CNS, 30.7 µM; in the test with PC-3 prostate it was 43.8 µM; in the test on SF-539 CNS, 39.6 µM; in the test with HCT-15 colon it was 30.3 µM. Besides, the TGI is 32 µM in the test on SNB-19 CNS, 34.2 µM with HOP-62 NSCLC, 36.7 µM in the test on SK-MEL-28 melanoma and 35.9 µM in the test on CAKI-1 renal.
For `CC(C)N1CCN(c2ccncc2S(=O)(=O)N2CCCCC2)CC1`, the TGI in the test with HCC-2998 colon, in the test on OVCAR-3 ovarian, in the test on SNB-75 CNS, in the test with PC-3 prostate, in the test on SF-539 CNS and in the test on HCT-15 colon was above 100 µM each time. Further, the TGI in the test with SNB-19 CNS, with HOP-62 NSCLC, in the test with SK-MEL-28 melanoma and in the test with CAKI-1 renal was above 100 µM throughout.

For the origin of these results see PubChem BioAssay (NCI).
